This is an account of results in US20120100989A1, “3-Aryl-4-(2-thienylmethylene)isoxazol-5(4H)-ones as Fungicides” (Bayer CropScience AG, priority 2010, published 2012).

The first data set in a line: log P by HPLC on reversed-phase columns (C 18), EEC directive 79/831 Annex V.A8. The class given is physicochemical. The settings on record: HPLC, acidic range pH 2.7, 0.1% aqueous formic acid and acetonitrile. How it is done: The log P values were measured according to EEC directive 79/831 Annex V.A8 by HPLC (High Performance Liquid Chromatography) on reversed-phase columns (C 18), using the method below:
The determination was carried out in the acidic range at pH 2.7 using the mobile phases 0.1% aqueous formic acid and acetonitrile; linear gradient from 10% acetonitrile to 95% acetonitrile.
For orientation: log P means a log measure of how a compound divides between an organic and an aqueous phase. With `Cc1ccc(C=C2C(=O)ON=C2c2ccccc2Cl)s1` [I-8], the log partition coefficient (log P) came out at 3.23.

Still in this data set, the particulars now being: pH 2.7.
In the case of `O=C1ON=C(c2cc(F)ccc2Cl)C1=Cc1cc(Br)cs1` [I-137], the lipophilicity (log P) was 3.95.

Regarding `O=C1ON=C(c2ccc(-c3ccccc3)cc2)C1=Cc1ccc(Br)s1` [I-75], the lipophilicity (log P) worked out at 4.88.

For the compound `Cc1ccc(C=C2C(=O)ON=C2c2ccccc2OCc2ccccc2)s1` [I-115], the “log P” value worked out at 3.98.

Regarding `Cc1ccsc1C=C1C(=O)ON=C1c1cccc(F)c1` [I-102], the lipophilicity (log P) was determined as 3.31.

As to `COc1ccc(C2=NOC(=O)C2=Cc2cccs2)c(OC)c1` [U-28], the “log P” value is on record as 2.68.

`Cc1cccc(C2=NOC(=O)C2=Cc2cccs2)c1` [I-80]: the log partition coefficient (log P) was determined as 3.36.

On to `Cc1ccc(C2=NOC(=O)C2=Cc2sccc2C)c(C)c1` [I-97], for which the “log P” value worked out at 3.85.

Consider `O=C1ON=C(c2ccccc2OC(F)(F)F)C1=Cc1cccs1` [I-121], for which the log partition coefficient (log P) is recorded as 3.43.

With `Cc1c(C=C2C(=O)ON=C2c2ccc(F)cc2)sc2ccccc12` [I-143], the log partition coefficient (log P) was determined as 4.18.

Turning to `O=C1ON=C(c2cccc(Cl)c2Cl)C1=Cc1cccs1` [I-99], the “log P” value is given as 3.62.

In the case of `Cc1ccc(C=C2C(=O)ON=C2c2ccc([N+](=O)[O-])cc2)s1` [U-24], the lipophilicity (log P) is 3.29.

As to `Cc1ccsc1C=C1C(=O)ON=C1c1ccccc1I` [I-107], the log partition coefficient (log P) came out at 3.56.

Take `Cc1ccc(C2=NOC(=O)C2=Cc2ccc(Cl)s2)cc1` [I-42]: the “log P” value was 4.05.

As for `O=C1ON=C(c2ccccc2)C1=Cc1cc(-c2ccccc2)cs1` [I-110], the log partition coefficient (log P) stood at 4.27.

Take `O=C1ON=C(c2ccccc2Cl)C1=Cc1cc(-c2ccccc2)cs1` [I-14]: the “log P” value turned out to be 4.36.

For the compound `Cc1c(C=C2C(=O)ON=C2c2ccc(Cl)cc2)sc2ccccc12` [I-144], the “log P” value was 4.63.

Turning to `COc1ccc(C2=NOC(=O)C2=Cc2ccc(C)s2)c(OC)c1` [U-25], the “log P” value amounted to 2.97.

Turning to `Cc1ccc(C2=NOC(=O)C2=Cc2ccc(Br)s2)cc1` [I-48], the lipophilicity (log P) was 4.12.

With `O=C1ON=C(c2ccc([N+](=O)[O-])cc2)/C1=C/c1cccs1` [U-40], the lipophilicity (log P) turned out to be 3.03.

`O=C1ON=C(c2cc(Cl)ccc2Cl)C1=Cc1cccs1` [I-35]: the “log P” value was determined as 3.64.

With `COc1ccc(C2=NOC(=O)C2=Cc2sccc2C)cc1` [U-11], the “log P” value was determined as 3.18.

Regarding `O=C1ON=C(c2c(F)cccc2F)C1=Cc1ccc(Br)s1` [I-72], the log partition coefficient (log P) turned out to be 3.73.

Regarding `Cc1sc(C=C2C(=O)ON=C2c2ccccc2Cl)cc1Br` [I-12], the log partition coefficient (log P) is recorded as 4.73.

Take `COc1ccc(C2=NOC(=O)C2=Cc2ccc(Br)s2)cc1` [I-49]: the “log P” value stood at 3.77.

In the case of `Cc1ccsc1C=C1C(=O)ON=C1c1ccccc1` [U-29], the “log P” value is 3.18.

Turning to `O=C1ON=C(c2ccc(F)cc2)C1=Cc1cc(Br)c(Br)s1` [I-63], the “log P” value amounted to 4.45.

Turning to `Cc1cccc(C2=NOC(=O)C2=Cc2ccc(Br)s2)c1` [I-84], the “log P” value is given as 4.14.

In the case of `O=C1ON=C(c2ccc(Cl)c(Cl)c2)C1=Cc1cccs1` [I-7], the “log P” value turned out to be 3.89.

As for `CCOc1ccc(C2=NOC(=O)C2=Cc2ccc(C)s2)cc1` [I-81], the “log P” value amounted to 3.70.

In the case of `Cc1ccc(C2=NOC(=O)C2=Cc2ccc([N+](=O)[O-])s2)cc1` [U-18], the “log P” value worked out at 3.62.

For the compound `COc1cccc(C2=NOC(=O)C2=Cc2ccc(Br)s2)c1` [I-68], the “log P” value is on record as 3.79.

For the compound `Cc1ccc(C2=NOC(=O)C2=Cc2cc(Br)c(Br)s2)cc1` [I-64], the “log P” value came out at 4.84.

With `Cc1ccsc1C=C1C(=O)ON=C1c1ccccc1[N+](=O)[O-]` [I-135], the “log P” value was 2.85.

Turning to `Cc1cc(C)cc(C2=NOC(=O)C2=Cc2cccs2)c1` [I-89], the “log P” value is on record as 3.78.

As for `O=C1ON=C(c2ccccc2OCc2ccccc2)C1=Cc1ccc(Br)s1` [I-113], the “log P” value is 4.48.

Take `O=C1ON=C(c2cc(Cl)cc(Cl)c2)C1=Cc1cccs1` [I-34]: the “log P” value is reported as 4.02.

With `O=C1ON=C(c2ccc(F)cc2)C1=Cc1cc(-c2ccccc2)cs1` [I-67], the “log P” value was 4.27.

For `COc1ccc(C2=NOC(=O)C2=Cc2cc(Br)cs2)cc1` [U-16], the “log P” value is given as 3.71.

Turning to `CC(C)(C)c1ccc(C2=NOC(=O)C2=Cc2ccc([N+](=O)[O-])s2)cc1` [I-53], the “log P” value worked out at 4.52.

On to `Cc1ccsc1C=C1C(=O)ON=C1c1ccccc1OCc1ccccc1` [I-116], for which the log partition coefficient (log P) is 3.89.

For `Cc1ccc(C=C2C(=O)ON=C2c2ccccc2Cl)s1` [I-19], the lipophilicity (log P) amounted to 3.44.

In the case of `Cc1ccsc1C=C1C(=O)ON=C1c1cccc(C(F)(F)F)c1` [I-91], the “log P” value stood at 3.82.

Take `O=C1ON=C(c2ccccc2[N+](=O)[O-])C1=Cc1cccs1` [I-120]: the “log P” value is listed as 2.69.

Regarding `CSCc1sc(C=C2C(=O)ON=C2c2ccccc2Cl)cc1Br` [I-13], the “log P” value worked out at 4.29.

Regarding `Cc1ccccc1C1=NOC(=O)C1=Cc1cccs1` [I-23], the “log P” value came out at 2.98.

As to `Cc1c(C=C2C(=O)ON=C2c2ccccc2)sc2ccccc12` [I-145], the lipophilicity (log P) was found to be 4.13.

With `COc1cccc(C2=NOC(=O)C2=Cc2cc(-c3ccccc3)cs2)c1` [I-52], the “log P” value came out at 4.27.

With `O=C1ON=C(c2cc(Br)ccc2Br)C1=Cc1cccs1` [I-122], the log partition coefficient (log P) stood at 3.88.

For `O=C1ON=C(c2cc(F)ccc2Cl)C1=Cc1ccc(Br)s1` [I-129], the “log P” value was 4.06.

Turning to `O=C1ON=C(c2ccccc2Cl)C1=Cc1ccc(Cl)s1` [I-9], the “log P” value was 3.90.

Consider `O=C1ON=C(c2cc(F)ccc2F)C1=Cc1cccs1` [I-126], for which the “log P” value worked out at 3.07.

For the compound `O=C1ON=C(c2ccccc2)C1=Cc1cc(Br)cs1` [U-36], the log partition coefficient (log P) came out at 3.71.

As for `COCc1ccsc1C=C1C(=O)ON=C1c1ccccc1Cl` [I-20], the “log P” value came out at 3.20.

On to `O=C1ON=C(c2ccc(Cl)cc2)C1=Cc1cc(Br)cs1` [I-31], for which the “log P” value was 4.19.

Turning to `O=C1ON=C(c2ccccc2I)C1=Cc1cccs1` [I-108], the “log P” value is listed as 3.36.

As for `COc1cc(OC)cc(C2=NOC(=O)C2=Cc2ccc(C)s2)c1` [U-20], the log partition coefficient (log P) was 3.48.

Take `Cc1cccc(C2=NOC(=O)C2=Cc2cccs2)c1C` [I-123]: the “log P” value is 3.48.

As to `O=C1ON=C(c2ccc(F)cc2)C1=Cc1ccc(Br)s1` [I-47], the lipophilicity (log P) is listed as 3.78.

Regarding `Cc1ccc(C2=NOC(=O)C2=Cc2sccc2C)cc1` [U-8], the lipophilicity (log P) is 3.57.

As to `O=C1ON=C(c2ccccc2Cl)C1=Cc1cccs1` [I-6], the “log P” value turned out to be 3.17.

`COc1ccc(C2=NOC(=O)C2=Cc2sccc2C)cc1OC` [U-26]: the lipophilicity (log P) amounted to 3.17.

As to `O=C1ON=C(c2ccc(Cl)cc2)C1=Cc1cc(-c2ccccc2)cs1` [I-65], the log partition coefficient (log P) turned out to be 4.70.

As to `COc1cccc(OC)c1C1=NOC(=O)C1=Cc1cccs1` [U-22], the “log P” value turned out to be 2.79.

Consider `Cc1ccc(C2=NOC(=O)C2=Cc2cc(-c3ccccc3)cs2)cc1` [I-69], for which the “log P” value amounted to 5.30.

With `O=C1ON=C(c2ccccc2F)C1=Cc1ccc(Cl)s1` [I-106], the “log P” value came out at 3.67.

`COc1ccc(F)cc1C1=NOC(=O)C1=Cc1cccs1` [U-31]: the lipophilicity (log P) was found to be 3.06.

In the case of `O=C1ON=C(c2ccc(Cl)cc2)C1=Cc1ccc(Cl)s1` [I-46], the “log P” value was 4.17.

For `Cc1ccc(C)c(C2=NOC(=O)C2=Cc2cccs2)c1` [I-98], the “log P” value was 3.62.

Turning to `O=C1ON=C(c2cc(F)ccc2Cl)C1=Cc1cccs1` [I-127], the “log P” value is 3.28.

As for `O=C1ON=C(c2cccc(F)c2)C1=Cc1cccs1` [I-100], the log partition coefficient (log P) was 3.13.

As to `O=C1ON=C(c2ccccc2F)C1=Cc1cccs1` [I-22], the lipophilicity (log P) came out at 2.95.

In the case of `COc1ccc(C2=NOC(=O)C2=Cc2cc(Br)c(Br)s2)cc1` [I-44], the “log P” value stood at 4.45.

For `CCOc1ccccc1C1=NOC(=O)C1=Cc1ccc(Br)s1` [I-118], the “log P” value turned out to be 4.03.

Consider `O=C1ON=C(c2ccc(Cl)cc2)C1=Cc1cc(Br)c(Br)s1` [I-45], for which the log partition coefficient (log P) was found to be 4.88.

As for `CCc1sc(C=C2C(=O)ON=C2c2ccccc2Cl)cc1Br` [I-10], the “log P” value worked out at 3.87.

As to `Cc1ccsc1C=C1C(=O)ON=C1c1ccc(C(C)(C)C)cc1` [I-28], the “log P” value is 4.58.

As for `O=C1ON=C(c2cc(F)ccc2Cl)C1=Cc1sccc1Cl` [I-136], the “log P” value was 3.95.

Turning to `O=C1ON=C(c2ccccc2Cl)C1=Cc1ccc([N+](=O)[O-])s1` [I-104], the “log P” value worked out at 3.50.

As for `O=C1ON=C(c2ccc(C(F)(F)F)cc2)C1=Cc1ccc(Cl)s1` [I-71], the lipophilicity (log P) amounted to 4.37.

For `COc1cccc(C2=NOC(=O)C2=Cc2sccc2C)c1` [U-13], the “log P” value was determined as 3.24.

With `O=C1ON=C(c2cc(Br)ccc2Cl)C1=Cc1cccs1` [I-128], the lipophilicity (log P) is 3.74.

Regarding `O=C1ON=C(c2cc(F)ccc2F)C1=Cc1ccc(Cl)s1` [I-139], the “log P” value stood at 3.84.

`Cc1ccsc1C=C1C(=O)ON=C1c1ccc([N+](=O)[O-])cc1` [U-23]: the “log P” value is listed as 3.18.

Still in this data set, the particulars now being: reversed-phase C18 HPLC column; preparation examples; HPLC, acidic range pH 2.7, formic acid; read-out: log P (HCOOH).
`O=C1ON=C(c2ccc(Cl)cc2Cl)/C1=C/c1cccs1` [I-4, 3-(2,4-dichlorophenyl)-4-(2-thienylmethylene)isoxazol-5(4H)-one]: the chromatographic logP was determined as 3.72.

As for `COc1cccc(C2=NOC(=O)/C2=C\c2ccc(Cl)s2)c1` [I-37, 3-(3-methoxyphenyl)-4-(2-(5-chlorothienyl)methylene)isoxazol-5(4H)-one], the chromatographic logP stood at 3.74.

Turning to `CC(C)(C)c1ccc(C2=NOC(=O)C2)cc1` [3-(4-tert-butylphenyl)isoxazol-5(4H)-one], the chromatographic logP was determined as 3.1.

In the case of `COc1cccc(C2=NOC(=O)C2)c1` [3-(3-methoxyphenyl)isoxazol-5(4H)-one], the chromatographic logP came out at 4.03.
